Experimental findings from patent US7754718B2 (priority 2004, dated 2010) are described below.

One data set concerns EBV. As to the kind of experiment: In vitro antiviral assay for EBV. It is filed as cell-based, Epstein-Barr Virus. To be noted: human gammaherpesvirus 4, read-out: Antiviral Activities (EC50, μM) EBV. How it is done: (§1) The antiviral assays for HBV, (Doong et al., 1991, Proc. Natl. Acad. Sci. U.S.A. 88:8495-8499) HSV-1, (Bastow et al., 1983, Antimicrob. Agents Chemother. 23: 914-917) HSV-2, (Bastow et al., 1983, Antimicrob. Agents Chemother. 23:914-917) EBV, (Yao et al., 1993, Antimicrob. Agents Chemother. 37:1420-1425), CMV (Andreoni et al., 2002, J. Med. Virol. 67:33-40) and HIV (Mellors et al., 1992, Mol. Pharmacol. 41: 446-451) were performed according to the previously reported procedures. Anti-HCV activities were tested in Huh-Luc/neo cell line. Cells were seeded into 48-well plates and grown until confluent. Different concentrations of drugs were added into media (DMEM, 10% dFBS) and incubated for 3 days. At the end of 3-day treatment, medium were removed and 50 μl of Passive lysis buffer (Promega) were added. Cell lysate was shaken at room temperature for 15 min. 30 μl/well of cell lysate was transferred to another 96-well plate, 100 μl/well of luciferase activity assay substrate was added into plate and read by a luminometer (Amersham) immediately.

A further data set has as its system HSV-2. As to the kind of experiment: In vitro antiviral assay for HSV-2. It is filed as cell-based, Herpes Simplex Virus 2. Conditions: Human alphaherpesvirus 2, read-out: Antiviral Activities (EC50, μM) HSV-2. On the procedure:
as §1

Another data set deals with HCV. As to the kind of experiment: Anti-HCV activity in Huh-Luc/neo cell line, luciferase activity after 3-day treatment. It is filed as cell-based, Hepatitis C virus. To be noted: Hepatitis C virus, 72 h, Huh-Luc/neo cells, 3 days; for EC50: given as a bound only, read-out: Antiviral Activities (EC50, μM) HCV. How it is done:
as §1

The nature of data set [1]: Cell cytotoxicity assay on MT-2 cells. Conditions: human, read-out: Cytotoxity (ID50, μM) MT-2. It is filed as cell-based. On the procedure:
(§2) Cytotoxicities of test compounds on MT-2 (Mellors et al., 1992 Mol. Pharmacol. 41:446-451) and CEM (Grove et al., 1995, Cancer Res. 55:3008-3011) cells were determined according to the previously reported procedures. Hepg2 cells were seeded at a density of 10^4 cells/ml/well in 24-well plates and cultured in MEME supplemented with 10% FBS at 37° C. and 5% CO2. Each test compound at different concentrations was added on the second day of the culture and the cells were incubated for another 3 days. At the end of the incubation period, the medium was removed and 0.5 ml of 0.5% methylene blue in 50% ethanol (v/v) was added to each well and set at room temperature for 30-60 minutes. The methylene blue was removed; the plates were washed with water and allowed to air dry. Once dry, 1% sarcosyl was added to dissolve the stained cell layer. The absorbance at 595 nm was measured with a microplate reader (Molecular Devices Corp. Sunnyvale, Calif.). The cytotoxicity to CEM cell was calculated as described previously (Grove et al., 1995, Cancer Res. 55 (14): 3008-3011).

A further data set has as its system HIV. Kind of data set: In vitro antiviral assay for HIV. It is filed as cell-based, human immunodeficiency virus. Conditions: Human immunodeficiency virus 1, read-out: Antiviral Activities (EC50, μM) HIV, in vitro; (T) after a value means toxic. How it is done:
as §1

Data set [2] in a line: Cell cytotoxicity assay on CEM cells. It is filed as cell-based. Conditions: human, read-out: Cytotoxity (ID50, μM) CEM. On the procedure: as §2
The next data set has as its system HBV. Kind of data set: In vitro antiviral assay for HBV (Table 1). It is filed as cell-based, Hepatitis B virus. To be noted: Hepatitis B virus, read-out: Antiviral Activities (EC50, μM) HBV. How it is done: as §1
The next data set concerns HSV-1. As to the kind of experiment: In vitro antiviral assay for HSV-1. To be noted: Human alphaherpesvirus 1, read-out: Antiviral Activities (EC50, μM) HSV-1. It is filed as cell-based, Herpes Simplex Virus 1. On the procedure: as §1
Where [3] appears, read: read-out: HCV percent of inhibition.

The structures appear in SMILES notation.

In the case of `O=C(O)c1cc2ccc3c(c2c(-c2ccc4c(c2)OCO4)c1COCc1ccccc1)OCO3` [Compound 5, 9-Benzo[1,3]dioxol-5-yl-8-benzyloxymethyl-naphtho[1,2-d][1,3]dioxole-7-carboxylic acid], the melting point lay within 219 to 221 °C. The EC50 with EBV was > 20 µM. Further, in the data set with HSV-2, the EC50 was > 25 µM. Besides, the EC50 with HCV was > 10 µM. In [1], the IC50 is 48 µM. Also, the EC50 in the data set on HIV is > 48 µM. Besides, the IC50 in data set [2] was > 50 µM. In the data set on HBV, the EC50 is > 10 µM. Further, the EC50 in the data set on HSV-1 was > 25 µM.
Take `CN1Cc2cc3ccc4c(c3c(-c3ccc5c(c3)OCO5)c2C1=O)OCO4` [Compound 17, 10-Benzo[1,3]dioxol-5-yl-8-methyl-7,8-dihydro-1,3-dioxa-8-aza-dicyclopenta[a,g]naphthalen-9-one]: the melting point was in the range of 242 to 244 °C. Besides, the EC50 with EBV was > 20 µM. Besides, the EC50 with HSV-2 was determined as 14 µM. Also, the inhibition at 3 µM with HCV (at 3 μM, read-out: HCV percent of inhibition) was found to be 29%. For the same molecule, the IC50 in data set [1] was 26 µM. Also, in the data set on HIV, the EC50 is > 26 µM. For the same molecule, the IC50 in [2] was found to be 27 µM. The half-maximal effective concentration (EC50) with HBV was > 10 µM. In addition, the EC50 in the data set with HSV-1 is 14 µM.
For `CN1Cc2c(cc3ccc4c(c3c2-c2ccc3c(c2)OCO3)OCO4)C1=O` [Compound 19, 10-Benzo[1,3]dioxol-5-yl-8-methyl-8,9-dihydro-1,3-dioxa-8-aza-dicyclopenta[a,g]naphthalen-7-one], the melting point is 234 to 236 °C. In addition, in the data set with EBV, the EC50 is > 20 µM. Moreover, the EC50 in the data set on HSV-2 was 1 µM. Also, the EC50 in the data set on HCV is > 3 µM. The IC50 in [1] amounted to 8 µM. Besides, in the data set with HIV, the concentration for a half-maximal effect (EC50) is > 8 µM. Further, the IC50 in data set [2] came to 6 µM. The EC50 in the data set with HBV was 1.6 µM. In addition, in the data set on HSV-1, the EC50 turned out to be 0.67 µM.
In turn, `O=C1c2cc3ccc4c(c3c(-c3ccc5c(c3)OCO5)c2CN1CCCO)OCO4` [Compound 21, 10-Benzo[1,3]dioxol-5-yl-8-(3-hydroxy-propyl)-8,9-dihydro-1,3-dioxa-8-aza-dicyclopenta[a,g]naphthalen-7-one] came in with a melting point of 213 to 215 °C. Besides, in the data set on EBV, the EC50 is > 20 µM. Moreover, the EC50 in the data set on HSV-2 was determined as 7 µM. The inhibition at 10 µM in the data set with HCV (setting [3]) worked out at 58%. For the same molecule, in data set [1], the IC50 came out at 22 µM. Moreover, in the data set on HIV, the EC50 came to 5 µM. The IC50 in [2] was determined as 22 µM. For the same molecule, the EC50 in the data set on HBV was > 20 µM. Besides, the EC50 in the data set with HSV-1 was determined as 5 µM.
In turn, `COC1=NC(=O)c2c1cc1ccc3c(c1c2-c1ccc2c(c1)OCO2)OCO3` [Compound 23, 10-Benzo[1,3]dioxol-5-yl-7-methoxy-1,3-dioxa-8-aza-dicyclopenta[a,g]naphthalen-9-one] came in with a melting point of 306 to 308 °C.
Turning to `CCOC(=O)c1c(C(=O)OCC)c(-c2ccc3c(c2)OCO3)c2c3c(ccc2c1OC)OCO3` [Compound 35, 9-Benzo[1,3]dioxol-5-yl-6-methoxy-naphtho[1,2-d][1,3]dioxole-7,8-dicarboxylic acid diethyl ester], the concentration for a half-maximal effect (EC50) with EBV was > 20 µM; in the data set with HSV-2, > 50 µM; in the data set with HIV, > 24 µM; with HBV, > 20 µM; in the data set on HSV-1, > 50 µM. Besides, the inhibition at 10 µM in the data set with HCV (setting [3]) was 60%. The figures for the IC50 in [1] and in data set [2] were 24 µM and > 100 µM, respectively.
Turning to `NC(=O)c1cc2ccc3c(c2c(-c2ccc4c(c2)OCO4)c1C(N)=O)OCO3` [Compound 36, 9-Benzo[1,3]dioxol-5-yl-naphtho[1,2-d][1,3]dioxole-7,8-dicarboxylic acid diamide], the half-maximal effective concentration (EC50) with EBV was > 20 µM; in the data set on HSV-2 it was > 50 µM; in the data set on HCV it was > 10 µM; in the data set on HIV it was > 100 µM; with HBV it was > 20 µM; with HSV-1, > 50 µM. Also, the IC50 in [1] and in [2] was > 100 µM throughout.

In general, EC50 refers to the midpoint of the concentration-response curve. As usually defined, the melting point is the temperature, or range, at which the solid turns liquid. As usually defined, the inhibition is the relative decrease from the control value, in per cent.
